Assays:
RORγt [1] = molecular target: T1, RORγt (Homo sapiens, UniProt P51449); experiment: Cofactor recruitment test (Alpha Screen, biotinylated SRC-1 peptide); type: biochemical; settings: read-out: signal value inhibitory rate (%) at test compound 1 μM
T1 sequence (P51449 1-497 isoform P51449-2): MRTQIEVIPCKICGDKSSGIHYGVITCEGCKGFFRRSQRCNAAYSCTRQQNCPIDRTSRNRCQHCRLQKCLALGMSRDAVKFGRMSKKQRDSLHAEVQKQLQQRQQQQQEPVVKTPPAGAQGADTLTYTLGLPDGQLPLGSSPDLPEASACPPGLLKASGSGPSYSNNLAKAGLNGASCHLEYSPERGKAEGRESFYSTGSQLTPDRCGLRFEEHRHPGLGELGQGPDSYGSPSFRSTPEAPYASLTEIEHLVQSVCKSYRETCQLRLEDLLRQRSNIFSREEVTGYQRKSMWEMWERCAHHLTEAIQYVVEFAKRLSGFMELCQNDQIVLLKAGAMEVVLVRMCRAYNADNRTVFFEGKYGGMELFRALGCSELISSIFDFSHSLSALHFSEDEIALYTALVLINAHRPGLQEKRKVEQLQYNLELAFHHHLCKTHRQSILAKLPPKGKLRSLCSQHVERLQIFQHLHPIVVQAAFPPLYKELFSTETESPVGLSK
Protocol: Cofactor Recruitment Test
Cofactor recruitment test was performed by Alpha Screen (Histidine Detection Kit, PerkinElmer) method. First, a test compound was diluted with an assay buffer (50 mM Tris-HCl (pH 7.5), 50 mM KCl, 1 mM DTT, 0.1% BSA) and added to a 384 well plate by 5 μL. […] The mixture was stood in a dark place for 1 hr, and the signal value was measured by Envision (PerkinElmer).

RORγt [2] = molecular target: T1, RORγt; experiment: Jurkat reporter test (human IL-17 ROR response element luciferase reporter, RORγt vector); type: cell-based; settings: test compound 3 μM; Jurkat cells; read-out: luminescence level inhibitory rate (%) at test compound 3 μM
Protocol: The Jurkat cells used for the reporter test were cultured in a culture medium (RPMI (Invitrogen), 10% FCS (AusGeneX), 100 U/mL penicillin, 100 μg/mL streptomycin). On the day of the test, 4×10^7 cells were recovered by a centrifugal operation (1000 rpm, for 5 min) and suspended in PBS (phosphate buffered saline) (Invitrogen). Thereafter, the cells were recovered again by a centrifugal operation, and suspended in 2 mL of R buffer (NEON transfection kit, Invitrogen). […] Gene transfer was performed by Electroporation apparatus (NEON, Invitrogen) under the conditions of pulse voltage 1350 V, interval 10 milliseconds, number of times 3. The cells after gene transfer were suspended in 40 mL of a reaction medium (RPMI, 10% Lipid reduced FCS (HyClone), 10 mM HEPES (pH 7.5), 100 U/mL penicillin, 100 μg/mL streptomycin, 5 μM lovastatin), and plated in a 96 well plate by 90 μL. A test compound diluted with the reaction medium was added by 10 μL, and the cells were cultured overnight in an incubator. Bright-Glo (Promega) was added by 100 μL, and the mixture was stirred at room temperature for 10 min, and the luminescence level was measured by Envision (PerkinElmer).

RORγt [3] = molecular target: T1, RORγt; experiment: RORγt binding test using fluorescent-labeled synthetic ligand (TR-FRET); settings: test compound 1 μM; read-out: binding inhibitory rate (%) of fluorescent-labeled synthetic ligand to RORγt at test compound 1 μM
Protocol: RORγt Binding Test Using Fluorescent-Labeled Synthetic Ligand
The binding activity of the test compound to RORγt was measured by a time resolved fluorescence resonance energy transfer (TR-FRET) utilizing histidine-tagged RORγt, fluorescent-labeled synthetic ligand, and terbium-labeled anti-histidine tag antibody (Invitrogen). First, a test compound diluted with an assay buffer (20 mM Tris-HCl (pH 7.5), 100 mM NaCl, 1 mM DTT, 0.1% BSA) was added to a 384 well plate by 3 μL. Then, RORγt diluted with an assay buffer to 240 nM was added by 3 μL, after which fluorescent-labeled synthetic ligand diluted with the assay buffer to 12 μM was added by 3 μL, and the mixture was stood at room temperature for 20 min. Thereafter, a terbium-labeled anti-histidine tag antibody diluted with the assay buffer to 8 nM was added by 3 μL. The mixture was stood at room temperature for 20 min, and fluorescence intensity (excitation wavelength 320 nm, fluorescence wavelength 520 nm, delay time 100 microseconds) was measured by Envision (PerkinElmer).

SMILES	inhibition at 1 µM (RORγt [1])	inhibition at 3 µM (RORγt [2])	inhibition at 1 µM (RORγt [3])
CC(C)n1c(=O)n(CC2CC2)c(=O)c2cc(NC(=O)N3CCO[C@@H](C(=O)Nc4ccc(C#N)c(Cl)c4)C3)c(F)cc21 [Example 235, (2R)-N^2-(3-chloro-4-cyanophenyl)-N^4-(3-(cyclopropylmethyl)-7-fluoro-1-isopropyl-2,4-dioxo-1,2,3,4-tetrahydroquinazolin-6-yl)morpholine-2,4-dicarboxamide]	109%	103%	102%
COc1ccc(C(=O)N[C@@H]2CCCN(C(=O)Nc3ccc4c(c3)c(=O)n(CC3CC3)c(=O)n4C(C)C)C2)cc1 [Example 244, (3R)-N-(3-(cyclopropylmethyl)-1-isopropyl-2,4-dioxo-1,2,3,4-tetrahydroquinazolin-6-yl)-3-((4-methoxybenzoyl)amino)piperidine-1-carboxamide]	105%	104%	102%
CC(C)n1c(=O)n(CC2CC2)c(=O)c2cc(NC(=O)[C@@H]3CCC[C@@H]3NC(=O)c3ccc(C#N)cc3)ccc21 [Example 264, 4-cyano-N-((1S,2R)-2-((3-(cyclopropylmethyl)-1-isopropyl-2,4-dioxo-1,2,3,4-tetrahydroquinazolin-6-yl)carbamoyl)cyclopentyl)benzamide]	110%	102%	102%
CC(C)n1c(=O)n(CC2CC2)c(=O)c2cc(NC(=O)N3CCO[C@@H](C(=O)Nc4cnc(C#N)c(Cl)c4)C3)c(F)cc21 [Example 266, (2R)-N^2-(5-chloro-6-cyanopyridin-3-yl)-N^4-(3-(cyclopropylmethyl)-7-fluoro-1-isopropyl-2,4-dioxo-1,2,3,4-tetrahydroquinazolin-6-yl)morpholine-2,4-dicarboxamide]	108%	103%	102%
CC(C)n1c(=O)n(CC2CC2)c(=O)c2cc(NC(=O)N3CCC[C@@H](NC(=O)c4ccc(CNC(=O)OC(C)(C)C)cc4)C3)ccc21 [Example 274, tert-Butyl (4-(((3R)-1-((3-(cyclopropylmethyl)-1-isopropyl-2,4-dioxo-1,2,3,4-tetrahydroquinazolin-6-yl)carbamoyl)piperidin-3-yl)carbamoyl)benzyl) carbamate]	89%	101%	102%
CC(C)n1c(=O)n(CC2CC2)c(=O)c2cc(NC(=O)N3CCC[C@@H](NC(=O)c4cc(Cl)ccc4F)C3)c(F)cc21 [Example 282, (3R)-3-((5-chloro-2-fluorobenzoyl)amino)-N-(3-(cyclopropylmethyl)-7-fluoro-1-isopropyl-2,4-dioxo-1,2,3,4-tetrahydroquinazolin-6-yl)piperidine-1-carboxamide]	108%	102%	102%
Cc1ccc(F)c(C(=O)N[C@@H]2CCCN(C(=O)Nc3cc4c(=O)n(CC5CC5)c(=O)n(C(C)C)c4cc3F)C2)c1 [Example 283, (3R)-N-(3-(cyclopropylmethyl)-7-fluoro-1-isopropyl-2,4-dioxo-1,2,3,4-tetrahydroquinazolin-6-yl)-3-((2-fluoro-5-methylbenzoyl)amino)piperidine-1-carboxamide]	108%	101%	102%

Results, then the molecule that gave them:

inhibition at 1 µM (RORγt [1])	inhibition at 3 µM (RORγt [2])	inhibition at 1 µM (RORγt [3])	SMILES
111%	103%	102%	CC(C)n1c(=O)n(CC2CC2)c(=O)c2cc(NC(=O)N3CCC[C@@H](NC(=O)c4ccc(C#N)cc4)C3)ccc21 [Example 218, (3R)-3-((4-cyanobenzoyl)amino)-N-(3-(cyclopropylmethyl)-1-isopropyl-2,4-dioxo-1,2,3,4-tetrahydroquinazolin-6-yl)piperidine-1-carboxamide]
110%	101%	102%	CC(C)n1c(=O)n(CC2CC2)c(=O)c2cc(NC(=O)N3CCC[C@@H](NC(=O)c4ccc(C#N)cc4F)C3)ccc21 [Example 219, (3R)-3-((4-cyano-2-fluorobenzoyl)amino)-N-(3-(cyclopropylmethyl)-1-isopropyl-2,4-dioxo-1,2,3,4-tetrahydroquinazolin-6-yl)piperidine-1-carboxamide]
111%	102%	102%	CC(C)n1c(=O)n(CC2CC2)c(=O)c2cc(NC(=O)N3CCC[C@@H](NC(=O)c4ccc(C#N)nc4)C3)ccc21 [Example 223, 6-cyano-N-((3R)-1-((3-(cyclopropylmethyl)-1-isopropyl-2,4-dioxo-1,2,3,4-tetrahydroquinazolin-6-yl)carbamoyl)piperidin-3-yl)nicotinamide]
105%	103%	102%	Cc1ccc(C(=O)N[C@@H]2CCCN(C(=O)Nc3ccc4c(c3)c(=O)n(CC3CC3)c(=O)n4C(C)C)C2)s1 [Example 242, (3R)-N-(3-(cyclopropylmethyl)-1-isopropyl-2,4-dioxo-1,2,3,4-tetrahydroquinazolin-6-yl)-3-(((5-methyl-2-thienyl)carbonyl)amino)piperidine-1-carboxamide]
107%	103%	102%	CC(C)n1c(=O)n(CC2CC2)c(=O)c2cc(NC(=O)N3CCC[C@@H](NC(=O)c4ccc(Cl)cc4)C3)ccc21 [Example 247, (3R)-3-((4-chlorobenzoyl)amino)-N-(3-(cyclopropylmethyl)-1-isopropyl-2,4-dioxo-1,2,3,4-tetrahydroquinazolin-6-yl)piperidine-1-carboxamide]
104%	104%	102%	CC(C)n1c(=O)n(CC2CC2)c(=O)c2cc(NC(=O)N3CCC[C@@H](NC(=O)c4cccc(Cl)c4)C3)ccc21 [Example 248, (3R)-3-((3-chlorobenzoyl)amino)-N-(3-(cyclopropylmethyl)-1-isopropyl-2,4-dioxo-1,2,3,4-tetrahydroquinazolin-6-yl)piperidine-1-carboxamide]
110%	103%	102%	Cc1cc(C(=O)N[C@@H]2CCCN(C(=O)Nc3ccc4c(c3)c(=O)n(CC3CC3)c(=O)n4C(C)C)C2)ccc1C#N [Example 249, (3R)-3-((4-cyano-3-methylbenzoyl)amino)-N-(3-(cyclopropylmethyl)-1-isopropyl-2,4-dioxo-1,2,3,4-tetrahydroquinazolin-6-yl)piperidine-1-carboxamide]
105%	102%	102%	CC(C)n1c(=O)n(CC2CC2)c(=O)c2cc(NC(=O)N3CCC[C@@H](NC(=O)c4ccc5c(c4)CCO5)C3)ccc21 [Example 251, (3R)-N-(3-(cyclopropylmethyl)-1-isopropyl-2,4-dioxo-1,2,3,4-tetrahydroquinazolin-6-yl)-3-((2,3-dihydro-1-benzofuran-5-ylcarbonyl)amino)piperidine-1-carboxamide]
102%	102%	102%	Cc1ccc(F)c(C(=O)N[C@@H]2CCCN(C(=O)Nc3ccc4c(c3)c(=O)n(CC3CC3)c(=O)n4C(C)C)C2)c1 [Example 259, (3R)-N-(3-(Cyclopropylmethyl)-1-isopropyl-2,4-dioxo-1,2,3,4-tetrahydroquinazolin-6-yl)-3-((2-fluoro-5-methylbenzoyl)amino)piperidine-1-carboxamide]
